# Measurements published in patent US20260159481A1, “INDOLE DERIVATIVE WITH SUBSTITUENT AND PHARMACEUTICAL USE” (MITOIMMUNE THERAPEUTICS INC., priority 2023, published 2026).
# Assays:
# [1] = Pharmacokinetics in plasma after oral administration to ICR mice; assay type: in vivo; settings: oral 10 mg/kg, plasma
# Description: Pharmacokinetic parameters may include the maximum plasma concentration (Cmax), the time to reach the maximum plasma concentration (Tmax), the area under the plasma concentration-time curve (AUCinf), and a half-life (t1/2).
# Example Compound 27 was orally administered to ICR mice at a dose of 10 mg/kg. Drug concentrations in the plasma of mice were measured by HPLC-MS/MS spectroscopy 0.5, 1, 2, 4, 8, or 24 hours after administration.
# The comparative example compound was orally administered to ICR mice at a dose of 10 mg/kg. The drug concentrations in the plasma of the mice were measured by HPLC-MS/MS 0.5, 1, 2, 4, 8, or 24 hours after administration.
# [2] = system: hippocampal neurons (HT-22); test: Protective effect against cell death due to RSL3 (LDH release), HT-22; assay type: cell-based; settings: Mus musculus, RSL3 0.3 μM, 24 hours
# Description: (§1) To confirm cell death protection effects on cardiac cells, adrenal medullary cells, renal fibroblasts, retinal epithelial cells, lung epithelial cells, renal proximal tubular epithelial cells, hippocampal neurons and fibroblasts, each type of cells were seeded at 4×10^3 to 1.2×10^4 cells/well in a 96-well plate and cultured for 18 to 24 hours. The example compounds were diluted to have the final concentration of 0.001, 0.003, 0.01, 0.3, 1, 3, and 10 μM, respectively, and then added to different wells and cultured for 15 to 20 minutes. […] To confirm the cell death protection effect of the example compounds, the degree of extracellular secretion of lactate dehydrogenase (LDH) was measured using a cytotoxicity LDH assay kit [Dojindo; CK12]. Briefly, at the end of 24-hour treatment of each type of cells with RSL3, 70 μL of the supernatant was taken from the 96-well plate where the cells were cultured and transferred to a new 96-well plate. The assay buffer included in the kit was added at 70 μL/well (equal to that of the sample) and the plate was covered with foil to block light and allowed to react for 15 to 20 minutes at room temperature. While observing a color change of the sample, 35 µL/well of a stop solution was added, an absorbance at 490 nm was measured using an iD3 spectrophotometer, and an EC50 value was calculated.
# fibroblasts (NIH/3T3) = test: Protective effect against cell death due to RSL3 (LDH release), NIH/3T3; assay type: cell-based; settings: Mus musculus, NIH3T3, RSL3 3 μM, 24 hours
# Description: as §1
# cardiac cells (H9C2) [3] = test: Protective effect against t-BHP-induced cell death in cardiac cells (LDH release); assay type: cell-based; settings: Rattus norvegicus, t-BHP 400 PM, 2 hours, read-out: EC50, protective effect against cell death due to t-BHP induction
# Description: To confirm a protective effect on cardiac cells, H9C2 cells were seeded at 1.5×10^4 cells/well in a 96-well plate and cultured for 24 hours. The example compounds were diluted to have the final concentration of 0.001, 0.01, 0.03, 0.1, 0.3, 1, 3, 10, and 30 PM, respectively, and then added to different wells, and the resulting cells were cultured for 15 to 20 minutes. Tert-butyl hydroperoxide (t-BHP) was treated to have the final concentration of 400 PM, and the resulting cells were cultured for 2 hours. To confirm the cell death protection effect of each compound, the degree of extracellular secretion of lactate dehydrogenase (LDH) was measured using a cytotoxicity LDH assay kit [Dojindo; CK12]. Briefly, after 2 hours of t-BHP treatment on the cells, 70 μL of the supernatant was taken from the 96-well plate where the cells were cultured and transferred to a new 96-well plate. The assay buffer included in the kit was added at 70 μL/well (equal to that of the sample) and the plate was covered with foil to block light and allowed to react for 15 minutes at room temperature. While observing a color change of each sample, 35 μL/well of a stop solution was added, an absorbance at 490 nm was measured using an iD3 spectrophotometer, and an EC50 value was calculated.
# [4] = system: lung epithelial cells (MLE-12); test: Protective effect against cell death due to RSL3 (LDH release), MLE-12; assay type: cell-based; settings: MLE12, RSL3 1 μM, 24 hours
# Description: as §1
# [5] = system: adrenal medullary cells (PC-12); test: Protective effect against cell death due to RSL3 (LDH release), PC-12; assay type: cell-based; settings: Rattus norvegicus, RSL3 0.3 μM, 24 hours
# Description: as §1
# [6] = system: renal proximal tubular epithelial cells (HK2); test: Protective effect against cell death due to RSL3 (LDH release), HK2; assay type: cell-based; settings: Epithelial cell, RSL3 0.3 μM, 24 hours
# Description: as §1
# [7] = system: renal fibroblasts (NRK-49F); test: Protective effect against cell death due to RSL3 (LDH release), NRK-49F; assay type: cell-based; settings: Rattus norvegicus, RSL3 3 μM, 24 hours
# Description: as §1
# cardiac cells (H9C2) [8] = test: Protective effect against cell death due to RSL3 (LDH release), H9C2; assay type: cell-based; settings: Rattus norvegicus, RSL3 0.5 μM, 24 hours
# Description: as §1
# [9] = system: retinal epithelial cells (ARPE-19); test: Protective effect against cell death due to RSL3 (LDH release), ARPE-19; assay type: cell-based; settings: Homo sapiens, RSL3 0.3 μM, 24 hours
# Description: as §1
smiles,measurement,setting,value
"OCc1cc(NC2CCCC2)c2[nH]c(-c3ccccc3)cc2c1 [Comparative Example, [7-(cyclopentylamino)-2-phenyl-1H-indol-5-yl]methanol, reference compound]",Cmax,[1]; mouse,2110 ng/mL
same,Tmax,[1]; mouse,1 h
same,half-life,[1]; mouse,1.4 h
same,concentration at 0.5 h,"[1]; mouse, 0.5 hr",1640 ng/mL
same,concentration at 1 h,"[1]; mouse, 1 hr",2110 ng/mL
same,concentration at 2 h,"[1]; mouse, 2 hr",1120 ng/mL
same,concentration at 4 h,"[1]; mouse, 4 hr",389 ng/mL
same,concentration at 8 h,"[1]; mouse, 8 hr",51 ng/mL
same,AUCinf,[1],"5,459 ng · hr/mL"
same,area under the plasma concentration-time curve (AUCinf),[1],5460 ng·h/mL
"O=C(NC1CC1)c1cc(NCc2ccncc2)c2[nH]c(-c3ccccc3)cc2c1 [Example 8, N-cyclopropyl-2-phenyl-7-((pyridin-4-ylmethyl)amino)-1H-indole-5-carboxamide]",EC50,[2],> 1000 nM
same,EC50,fibroblasts (NIH/3T3),100 to 1000 nM
same,EC50,cardiac cells (H9C2) [3],≤ 300 nM
same,EC50,[4],100 to 1000 nM
same,EC50,[5],100 to 1000 nM
same,EC50,[6],100 to 1000 nM
same,EC50,[7],100 to 1000 nM
same,EC50,cardiac cells (H9C2) [8],100 to 1000 nM
same,EC50,[9],≤ 100 nM
"CCN(CC)C(=O)Cc1cc(NCc2ccccc2)c2[nH]c(-c3ccccc3)cc2c1 [Example 14, 2-(7-(benzylamino)-2-phenyl-1H-indol-5-yl)-N,N-diethylacetamide]",EC50,[2],100 to 1000 nM
same,EC50,fibroblasts (NIH/3T3),100 to 1000 nM
same,EC50,cardiac cells (H9C2) [3],300 to 1000 nM
same,EC50,[4],≤ 100 nM
same,EC50,[5],≤ 100 nM
same,EC50,[6],≤ 100 nM
same,EC50,[7],≤ 100 nM
same,EC50,cardiac cells (H9C2) [8],≤ 100 nM
same,EC50,[9],≤ 100 nM
"CCNS(=O)(=O)c1cc(NC2CCCC2)c2[nH]c(-c3ccccc3)cc2c1 [Example 22, 7-(cyclopentylamino)-N-ethyl-2-phenyl-1H-indole-5-sulfonamide]",EC50,[2],100 to 1000 nM
same,EC50,fibroblasts (NIH/3T3),100 to 1000 nM
same,EC50,cardiac cells (H9C2) [3],300 to 1000 nM
same,EC50,[4],100 to 1000 nM
same,EC50,[5],100 to 1000 nM
same,EC50,[6],≤ 100 nM
same,EC50,[7],≤ 100 nM
same,EC50,cardiac cells (H9C2) [8],≤ 100 nM
same,EC50,[9],≤ 100 nM
"CC1(O)CCC(OCc2cc(NC3CCOCC3)c3[nH]c(-c4ccccc4)cc3c2)CC1 (stereo not drawn) [Example 36, 1-methyl-4-((2-phenyl-7-((tetrahydro-2H-pyran-4-yl)amino)-1H-indol-5-yl)methoxy)cyclohexan-1-ol]",EC50,[2],100 to 1000 nM
same,EC50,fibroblasts (NIH/3T3),100 to 1000 nM
same,EC50,cardiac cells (H9C2) [3],≤ 300 nM
same,EC50,[4],100 to 1000 nM
same,EC50,[5],100 to 1000 nM
same,EC50,[6],≤ 100 nM
same,EC50,[7],≤ 100 nM
same,EC50,cardiac cells (H9C2) [8],≤ 100 nM
same,EC50,[9],≤ 100 nM
"FC(F)COCc1cc(NC2CCOCC2)c2[nH]c(-c3ccccc3)cc2c1 [Example 40, 5-((2,2-difluoroethoxy)methyl)-2-phenyl-N-(tetrahydro-2H-pyran-4-yl)-1H-indol-7-amine]",EC50,[2],≤ 100 nM
same,EC50,fibroblasts (NIH/3T3),100 to 1000 nM
same,EC50,cardiac cells (H9C2) [3],≤ 300 nM
same,EC50,[4],≤ 100 nM
same,EC50,[5],≤ 100 nM
same,EC50,[6],≤ 100 nM
same,EC50,[7],≤ 100 nM
same,EC50,cardiac cells (H9C2) [8],≤ 100 nM
same,EC50,[9],≤ 100 nM
"c1ccc(-c2cc3cc(COCCN4CCOCC4)cc(NC4CCCC4)c3[nH]2)cc1 [Example 41, N-cyclopentyl-5-((2-morpholinoethoxy)methyl)-2-phenyl-1H-indol-7-amine]",EC50,[2],≤ 100 nM
same,EC50,fibroblasts (NIH/3T3),100 to 1000 nM
same,EC50,cardiac cells (H9C2) [3],≤ 300 nM
same,EC50,[4],≤ 100 nM
same,EC50,[5],≤ 100 nM
same,EC50,[6],≤ 100 nM
same,EC50,[7],≤ 100 nM
same,EC50,cardiac cells (H9C2) [8],≤ 100 nM
same,EC50,[9],≤ 100 nM
"OCCNCCOCc1cc(NC2CCOCC2)c2[nH]c(-c3ccccc3)cc2c1 [Example 48, 2-((2-((2-phenyl-7-((tetrahydro-2H-pyran-4-yl)amino)-1H-indol-5-yl)methoxy)ethyl)amino)ethan-1-ol]",EC50,cardiac cells (H9C2) [3],300 to 1000 nM
"COCCNC(=O)c1cc(NC2CCOCC2)c2[nH]c(-c3ccccc3)cc2c1 [Example 49, N-(2-methoxyethyl)-2-phenyl-7-((tetrahydro-2H-pyran-4-yl)amino)-1H-indol-5-carboxamide]",EC50,cardiac cells (H9C2) [3],≤ 300 nM
"COCCNCc1cc(NC2CCOCC2)c2[nH]c(-c3ccccc3)cc2c1 [Example 50, 5-(((2-methoxyethyl)amino)methyl)-2-phenyl-N-(tetrahydro-2H-pyran-4-yl)-1H-indol-7-amine]",EC50,cardiac cells (H9C2) [3],≤ 300 nM
"COCCN(C)C(=O)c1cc(NC2CCOCC2)c2[nH]c(-c3ccccc3)cc2c1 [Example 51, N-(2-methoxyethyl)-N-methyl-2-phenyl-7-((tetrahydro-2H-pyran-4-yl)amino)-1H-indole-5-carboxamide]",EC50,cardiac cells (H9C2) [3],≤ 300 nM
"COCCOCCN(C)C(=O)c1cc(NC2CCOCC2)c2[nH]c(-c3ccccc3)cc2c1 [Example 52, N-(2-(2-methoxyethoxy)ethyl)-N-methyl-2-phenyl-7-((tetrahydro-2H-pyran-4-yl)amino)-1H-indole-5-carboxamide]",EC50,cardiac cells (H9C2) [3],> 1000 nM
"CN(CCO)CCOCc1cc(NC2CCOCC2)c2[nH]c(-c3ccccc3)cc2c1 [Example 53, 2-(methyl(2-((2-phenyl-7-((tetrahydro-2H-pyran-4-yl)amino)-1H-indol-5-yl)methoxy)ethyl)amino)ethan-1-ol]",EC50,cardiac cells (H9C2) [3],≤ 300 nM
"CN(CCOCCO)C(=O)c1cc(NC2CCOCC2)c2[nH]c(-c3ccccc3)cc2c1 [Example 54, N-(2-(2-hydroxyethoxy)ethyl)-N-methyl-2-phenyl-7-((tetrahydro-2H-pyran-4-yl)amino)-1H-indole-5-carboxamide]",EC50,cardiac cells (H9C2) [3],300 to 1000 nM
"COCCN(C)Cc1cc(NC2CCOCC2)c2[nH]c(-c3ccccc3)cc2c1 [Example 55, 5-(((2-methoxyethyl)(methyl)amino)methyl)-2-phenyl-N-(tetrahydro-2H-pyran-4-yl)-1H-indol-7-amine]",EC50,cardiac cells (H9C2) [3],≤ 300 nM
"COCCOCCNC(=O)c1cc(NC2CCOCC2)c2[nH]c(-c3ccccc3)cc2c1 [Example 56, N-(2-(2-methoxyethoxy)ethyl)-2-phenyl-7-((tetrahydro-2H-pyran-4-yl)amino)-1H-indole-5-carboxamide]",EC50,cardiac cells (H9C2) [3],300 to 1000 nM
"COCCOCCNCc1cc(NC2CCOCC2)c2[nH]c(-c3ccccc3)cc2c1 [Example 57, 5-(((2-(2-methoxyethoxy)ethyl)amino)methyl)-2-phenyl-N-(tetrahydro-2H-pyran-4-yl)-1H-indol-7-amine]",EC50,cardiac cells (H9C2) [3],≤ 300 nM
"COCCOCCN(C)Cc1cc(NC2CCOCC2)c2[nH]c(-c3ccccc3)cc2c1 [Example 58, 5-(((2-(2-methoxyethoxy)ethyl)(methyl)amino)methyl)-2-phenyl-N-(tetrahydro-2H-pyran-4-yl)-1H-indol-7-amine]",EC50,cardiac cells (H9C2) [3],≤ 300 nM
"CS(=O)(=O)NCCOCc1cc(NC2CCOCC2)c2[nH]c(-c3ccccc3)cc2c1 [Example 59, N-(2-((2-phenyl-7-((tetrahydro-2H-pyran-4-yl)amino)-1H-indol-5-yl)methoxy)ethyl)methanesulfonamide]",EC50,cardiac cells (H9C2) [3],≤ 300 nM
"COCCNCCOCc1cc(NC2CCOCC2)c2[nH]c(-c3ccccc3)cc2c1 [Example 60, 5-((2-((2-methoxyethyl)amino)ethoxy)methyl)-2-phenyl-N-(tetrahydro-2H-pyran-4-yl)-1H-indol-7-amine]",EC50,cardiac cells (H9C2) [3],≤ 300 nM
"COCCN(C)CCOCc1cc(NC2CCOCC2)c2[nH]c(-c3ccccc3)cc2c1 [Example 61, 5-((2-((2-methoxyethyl)(methyl)amino)ethoxy)methyl)-2-phenyl-N-(tetrahydro-2H-pyran-4-yl)-1H-indol-7-amine]",EC50,cardiac cells (H9C2) [3],≤ 300 nM
